From article PMC11355195 (Life, 2024)
In brackets after ≈: the same amount, converted by molar mass.

System: MCF-7
Assay: MTT cell viability, MCF-7
Assay type: cell-based, Human
Settings: Homo sapiens, MCF7; MTT test; 72 h of treatment (Figure 3); read-out: IC50 Value ± SD, MCF-7
Protocol: These cell lines were selected to represent distinct sub-types of breast cancer for extensive investigation. […] The medium was added with 10% heat-inactivated fetal calf serum (FCS) to supply vital growth hormones and nutrients necessary for cell proliferation. Additionally, 1% penicillin streptomycin was administered to avoid bacterial contamination, ensuring the sterility and integrity of the cell cultures. The cell cultures were maintained at 37 °C in a humidified environment containing 5% CO2. This controlled environment mimics physiological conditions in the human body, supporting optimal cell development and function. The humidified atmosphere prevents medium evaporation, while the 5% CO2 concentration maintains optimal pH values in the culture medium. These specialized circumstances and methods ensure that the breast cancer cell lines remain healthy and viable for experimental procedures, delivering dependable and reproducible results for research projects. The standard protocols followed for cultivating these cells are crucial for generating consistent and reliable data. Using well-characterized cell lines from a credible source like ATCC ensures the re-liability and comparability of the experimental outcomes.
This approach determines cell viability based on the ability of living cells to decrease MTT to a purple, water-insoluble formazan product. Cells were planted in 96-well plates at a density of 1 × 10^4 cells per well in 100 μL of complete culture media, which provides all necessary nutrients for cell growth. […] The cells were then treated with the compounds for 24, 48, and 72 h to determine the effect on cell viability over varied time intervals. Following each incubation time, 20 μL of MTT solution (at a concentration of 5 mg/mL in PBS) were applied to each well. The plates were further incubated for 4 h at 37 °C, during which time live cells decrease the MTT to formazan, creating purple crystals. At the end of the incubation, the medium containing the MTT was carefully aspirated, leaving only the formazan crystals in the bottom of the wells. […]

Q: How did the IC50 turn out when `Cc1ccc(C(C)C)c(O)c1` [Thymol, 2-isopropyl-5-methylphenol] was run?
A: 5.16 ± 0.71 µg/mL (≈ 34.3 µM)
